In the NIST ThermoML archive (doi:10.1016/j.jct.2009.03.005):
± gives the expanded uncertainty stated by the source.

Test: wn = mass fraction of the nth substance listed
Details: 298.15 K, 101 kPa, Liquid; for viscosity: Capillary tube (Ostwald / Ubbelohde) method; for mass density: Pycnometric method

C[S+](C)[O-] [dimethyl sulfoxide] + CC#N
Details	mass density [kg/m3]	viscosity [mPa·s]
w1 = 0.2	829.3 ± 0.4	0.4196 ± 0.017
w1 = 0.4	883.3 ± 0.4	0.5249 ± 0.021
w1 = 0.6	945.6 ± 0.5	0.7147 ± 0.029
